Data reported in patent publication US20210361715A1, “USE OF EXOSOME DERIVED FROM MESENCHYMAL STEM CELLS CO-CULTURED WITH MELATONIN IN PREVENTION AND TREATMENT OF CHRONIC KIDNEY DISEASE” (STEM BIO CO., LTD., priority 2020, published 2021).

How the values were obtained:
[1] = test system: cellular prion protein (PrPC); type: cell-based, human; conditions: healthy and CKD patient MSCs treated with melatonin; ELISA; FIGS. 4B, 4C
[2] = test system: miR-4516; test: miRNA / miR-4516 expression by RNA microarray and qPCR in MSCs and exosomes; type: cell-based, human; conditions: healthy MSCs and CKD-MSCs treated with melatonin; qPCR; FIG. 4F

## COc1ccc2[nH]cc(CCNC(C)=O)c2c1 [melatonin]
[1]
  expression of prion proteins present in the exosomes extracted from stem cells: increases
[2]
  expression level of miR-4516 in stem cells: increase
